# Measurements as given in US10799598B2, “Disulfide bridging conjugates” (Sorrento Therapeutics, Inc., priority 2017, dated 2020).
# What was measured:
# [1] = tested on: PC-3 (PSMA-) prostate cancer cells; assay: Luminescence cytotoxicity assay, absence of effector cells, PC-3; assay type: cell-based; details: PC-3 (PSMA absent), up to 20 nM, 4 days incubation
# Description: (§1) Firefly luciferase transduced prostate cancer target cell lines were used for cytotoxicity assays, LNCaP (ATCC® CRL-1740™), PSMA+(cultured in RPMI-1640+10% non-heat-inactivated FBS+0.5 μg/mL Puromycin) and PC-3 (ATCC® CRL-1435™), PSMA-(cultured in RPMI-1640+10% heat-inactivated FBS+1.0 μg/mL Puromycin). Cells were harvested with TrypLE (ThermoFisher Scientific) then resuspended in fresh RPMI-1640+10% heat-inactivated FBS and plated at 4,000 cells/well in 100 μL. After overnight incubation at 37° C. in a humidified 5% CO2 incubator, serial dilutions of proteins in RPMI-1640+10% heat-inactivated medium (50 μL) were added to the assay plates at the indicated concentrations. In experiments utilizing effector cells, freshly thawed peripheral blood mononuclear cells (PBMCs) were washed with media and added to the assay plates at 40,000 cells in 50 μL to obtain an effector:target ratio of 10:1. After 4 days incubation, 90 μL was removed from assay plates and 90 μL ONE Glo Luciferase Assay Reagent (Promega # E6120) was mixed with the samples and incubated at room temperature for 10 min. Samples were transferred to white 96-well flat bottom plates for luminescence measurements using a PerkinElmer EnSpire multimode plate reader. Data was analyzed using GraphPad Prism software.
# [2] = tested on: LNCaP (PSMA+) prostate cancer cells; assay: Luminescence cytotoxicity assay, absence of effector cells, LNCaP; assay type: cell-based; details: LNCaP (PSMA present), up to 20 nM, 4 days incubation
# Description: as §1
smiles,measurement,setting,value
"O=C(O)CCC(NC(=O)NC(CCC(=O)O)C(=O)O)C(=O)O (centres unmarked) [DUPA small molecule, 2-[3-(1,3-dicarboxypropyl)ureido]pentanedioic acid]",dose-dependent cell killing activity,[1],No dose-dependent cell killing activity was observed
same,dose-dependent cell killing activity,[2],No dose-dependent cell killing activity was observed
